Measurements as given in US10604531B2, “Enhancer of zeste homolog 2 inhibitors” (GLAXOSMITHKLINE INTELLECTUAL PROPERTY (NO.2) LIMITED, priority 2016, dated 2020).

Legend:
[1] = biological target: EZH2 within the PRC2 complex (FLAG-EZH2, EED, SUZ12, RbAp48, AEBP2) (Homo sapiens (Human), UniProt Q15910); test: EZH2 methyltransferase scintillation proximity assay (SPA), PRC2 complex; assay type: biochemical; settings: 3H-SAM, biotinylated histone H3K27 peptide, 60 min at room temperature; values of 10 nM approach the assay's limit of detection
EZH2 within the PRC2 complex (FLAG-EZH2, EED, SUZ12, RbAp48, AEBP2), sequence (Q15910 whole entry): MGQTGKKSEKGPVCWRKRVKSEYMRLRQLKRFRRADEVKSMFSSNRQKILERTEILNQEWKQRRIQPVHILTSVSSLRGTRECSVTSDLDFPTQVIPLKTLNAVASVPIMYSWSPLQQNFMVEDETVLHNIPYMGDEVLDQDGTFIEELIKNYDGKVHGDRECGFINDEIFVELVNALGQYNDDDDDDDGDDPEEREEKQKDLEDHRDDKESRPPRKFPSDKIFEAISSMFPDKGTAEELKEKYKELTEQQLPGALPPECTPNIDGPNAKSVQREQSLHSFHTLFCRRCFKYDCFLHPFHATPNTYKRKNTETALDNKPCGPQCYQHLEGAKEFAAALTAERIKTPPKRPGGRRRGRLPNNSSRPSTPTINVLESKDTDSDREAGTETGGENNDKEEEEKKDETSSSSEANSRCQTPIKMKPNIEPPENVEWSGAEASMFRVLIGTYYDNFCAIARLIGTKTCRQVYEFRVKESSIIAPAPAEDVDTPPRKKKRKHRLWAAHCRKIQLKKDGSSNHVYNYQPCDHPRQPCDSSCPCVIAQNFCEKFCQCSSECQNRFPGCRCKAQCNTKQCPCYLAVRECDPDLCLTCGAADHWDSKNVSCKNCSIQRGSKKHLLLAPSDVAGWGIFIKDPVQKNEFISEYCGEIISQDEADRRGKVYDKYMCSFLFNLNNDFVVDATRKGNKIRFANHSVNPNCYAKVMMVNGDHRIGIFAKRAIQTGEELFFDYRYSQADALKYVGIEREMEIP
EZH2 within the PRC2 complex (FLAG-EZH2, EED, SUZ12, RbAp48, AEBP2), sequence (O75530 whole entry partner): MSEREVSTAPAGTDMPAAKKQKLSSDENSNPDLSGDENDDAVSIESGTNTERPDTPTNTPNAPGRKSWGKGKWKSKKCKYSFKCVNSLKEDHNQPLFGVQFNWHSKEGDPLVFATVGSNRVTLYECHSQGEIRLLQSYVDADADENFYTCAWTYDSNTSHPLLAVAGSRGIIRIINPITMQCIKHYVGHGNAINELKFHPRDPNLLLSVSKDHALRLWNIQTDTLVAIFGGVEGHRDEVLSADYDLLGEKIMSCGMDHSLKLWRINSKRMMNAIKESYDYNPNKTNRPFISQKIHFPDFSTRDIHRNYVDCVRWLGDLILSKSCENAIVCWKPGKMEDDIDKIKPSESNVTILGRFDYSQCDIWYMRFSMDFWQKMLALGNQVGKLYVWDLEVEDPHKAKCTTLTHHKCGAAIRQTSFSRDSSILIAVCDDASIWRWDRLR
EZH2 within the PRC2 complex (FLAG-EZH2, EED, SUZ12, RbAp48, AEBP2), sequence (Q15022 whole entry partner): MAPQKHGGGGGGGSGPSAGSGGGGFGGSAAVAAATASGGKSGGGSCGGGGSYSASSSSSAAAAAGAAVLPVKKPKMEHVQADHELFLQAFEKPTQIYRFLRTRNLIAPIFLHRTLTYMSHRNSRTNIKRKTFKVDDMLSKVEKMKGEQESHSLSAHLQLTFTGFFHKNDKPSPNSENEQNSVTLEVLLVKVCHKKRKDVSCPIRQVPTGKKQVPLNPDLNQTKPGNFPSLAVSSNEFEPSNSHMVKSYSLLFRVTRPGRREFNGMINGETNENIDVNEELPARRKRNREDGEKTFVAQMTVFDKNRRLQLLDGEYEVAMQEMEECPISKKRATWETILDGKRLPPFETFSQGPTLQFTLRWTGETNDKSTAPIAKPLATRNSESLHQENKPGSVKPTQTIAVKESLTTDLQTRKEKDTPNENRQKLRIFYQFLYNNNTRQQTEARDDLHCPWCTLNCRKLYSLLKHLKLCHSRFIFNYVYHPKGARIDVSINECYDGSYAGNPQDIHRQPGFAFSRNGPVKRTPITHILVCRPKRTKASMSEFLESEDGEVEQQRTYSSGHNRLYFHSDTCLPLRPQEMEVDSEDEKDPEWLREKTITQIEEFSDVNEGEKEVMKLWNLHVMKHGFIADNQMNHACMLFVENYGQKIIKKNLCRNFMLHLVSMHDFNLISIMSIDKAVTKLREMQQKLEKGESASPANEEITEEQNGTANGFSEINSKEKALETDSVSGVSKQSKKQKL
EZH2 within the PRC2 complex (FLAG-EZH2, EED, SUZ12, RbAp48, AEBP2), sequence (Q09028 whole entry partner): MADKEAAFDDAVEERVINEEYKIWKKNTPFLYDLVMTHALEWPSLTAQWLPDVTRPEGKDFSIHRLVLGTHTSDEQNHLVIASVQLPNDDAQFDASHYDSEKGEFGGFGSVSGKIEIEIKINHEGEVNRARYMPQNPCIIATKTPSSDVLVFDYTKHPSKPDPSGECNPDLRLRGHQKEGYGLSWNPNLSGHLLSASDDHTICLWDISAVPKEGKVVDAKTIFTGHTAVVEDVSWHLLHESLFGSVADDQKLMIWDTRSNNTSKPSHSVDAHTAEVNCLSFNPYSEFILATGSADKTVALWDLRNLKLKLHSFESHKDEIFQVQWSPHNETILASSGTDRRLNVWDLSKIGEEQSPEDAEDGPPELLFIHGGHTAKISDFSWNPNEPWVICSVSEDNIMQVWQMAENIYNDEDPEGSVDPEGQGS
EZH2 within the PRC2 complex (FLAG-EZH2, EED, SUZ12, RbAp48, AEBP2), sequence (Q6ZN18 whole entry partner): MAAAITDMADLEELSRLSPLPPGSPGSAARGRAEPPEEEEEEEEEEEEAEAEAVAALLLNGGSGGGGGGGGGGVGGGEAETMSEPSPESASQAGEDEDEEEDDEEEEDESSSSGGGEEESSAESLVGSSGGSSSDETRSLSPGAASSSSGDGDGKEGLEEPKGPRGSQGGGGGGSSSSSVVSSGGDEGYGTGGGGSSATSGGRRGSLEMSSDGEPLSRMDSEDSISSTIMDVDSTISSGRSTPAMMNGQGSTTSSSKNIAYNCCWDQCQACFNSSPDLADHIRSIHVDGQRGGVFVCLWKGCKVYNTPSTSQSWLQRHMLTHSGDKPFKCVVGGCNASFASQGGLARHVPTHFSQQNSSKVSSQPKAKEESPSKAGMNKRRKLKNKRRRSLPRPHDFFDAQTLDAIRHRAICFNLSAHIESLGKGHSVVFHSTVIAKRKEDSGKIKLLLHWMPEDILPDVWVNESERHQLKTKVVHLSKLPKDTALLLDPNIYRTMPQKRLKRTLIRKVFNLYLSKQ
Protocol: Compounds contained herein were evaluated for their ability to inhibit the methyltransferase activity of EZH2 within the PRC2 complex. Human PRC2 complex was prepared by co-expressing each of the 5 member proteins (FLAG-EZH2, EED, SUZ12, RbAp48, AEBP2) in Sf9 cells followed by co-purification. Enzyme activity was measured in a scintillation proximity assay (SPA) where a tritiated methyl group is transferred from 3H-SAM to a lysine residue on a biotinylated, unmethylated peptide substrate derived from histone H3. The peptides were captured on streptavidin-coated SPA beads and the resulting signal was read on a ViewLux plate reader.
Part A. Compound Preparation
• 1. Prepare 10 mM stock of compounds from solid in 100% DMSO. • 2. Set up an 11-point serial dilution (1:4 dilution, top concentration 10 mM) in 100% DMSO for each test compound in a 384 well plate leaving columns 6 and 18 for DMSO controls. • 3. Dispense 10 nL of compound from the dilution plate into reaction plates (Corning, 384-well polystyrene NBS, Cat #3673). Part B. Reagent Preparation Prepare the following solutions: • 1. 1× Base Buffer, 50 mM Tris-HCl, pH 8, 2 mM MgCl2: Per 1 L of base buffer, combine 1 M Tris-HCl, pH 8 (50 mL), 1 M MgCl2 (2 mL), and distilled water (948 mL). • 2. 1× Assay Buffer: Per 10 mL of 1× Assay Buffer, combine 1× Base Buffer (9.96 mL), 1 M DTT (40 uL), and 10% Tween-20 (1 uL) to provide a final concentration of 50 mM Tris-HCl, pH 8, 2 mM MgCl2, 4 mM DTT, 0.001% Tween-20. • 3. 2× Enzyme Solution: Per 10 mL of 2× Enzyme Solution, combine 1× Assay Buffer (9.99 mL) and 3.24 uM EZH2 5 member complex (6.17 uL) to provide a final enzyme concentration of 1 nM. • 4. SPA Bead Solution: Per 1 mL of SPA Bead Solution, combine Streptavidin coated SPA beads (PerkinElmer, Cat # RPNQ0261, 40 mg) and 1× Assay Buffer (1 mL) to provide a working concentration of 40 mg/mL. • 5. 2× Substrate Solution: Per 10 mL of 2× Substrate Solution, combine 40 mg/mL SPA Bead Solution (375 uL), 1 mM biotinylated histone H3K27 peptide (200 uL), 12.5 uM 3H-SAM (240 uL; 1 mCi/mL), 1 mM cold SAM (57 uL), and 1× Assay Buffer (9.13 mL) to provide a final concentration of 0.75 mg/mL SPA Bead Solution, 10 uM biotinylated histone H3K27 peptide, 0.15 uM 3H-SAM (˜12 uCi/mL 3H-SAM), and 2.85 uM cold SAM. • 6. 2.67× Quench Solution: Per 10 mL of 2.67× Quench Solution, combine 1× Assay Buffer (9.73 mL) and 10 mM cold SAM (267 uL) to provide a final concentration of 100 uM cold SAM. Part C. Assay Reaction in 384-well Grenier Bio-One Plates Compound Addition • 1. Stamp 10 nL/well of 1000× Compound to test wells (as noted above). • 2. Stamp 10 nL/well of 100% DMSO to columns 6 & 18 (high and low controls, respectively). Assay • 1. Dispense 5 uL/well of 1× Assay Buffer to column 18 (low control reactions). • 2. Dispense 5 uL/well of 2× Substrate Solution to columns 1-24 (note: substrate solution should be mixed to ensure homogeneous bead suspension before dispensing into matrix reservoir). • 3. Dispense 5 uL/well of 2× Enzyme Solution to columns 1-17, 19-24. • 4. Incubate the reaction for 60 min at room temperature. Quench • 1. Dispense 6 uL/well of the 2.67× Quench Solution to columns 1-24. • 2. Seal assay plates and spin for ˜1 min at 500 rpm. • 3. Dark adapt plates in the ViewLux instrument for 15-60 min. Read Plates • 1. Read the assay plates on the Viewlux Plate Reader utilizing the 613 nm emission filter or clear filter (300 s exposure). Reagent addition can be done manually or with automated liquid handler. Results
Percent inhibition was calculated relative to the DMSO control for each compound concentration and the resulting values were fit using standard IC50 fitting parameters within the ABASE data fitting software package.

[2] = for XRPD after DVS experiment: form change or change in crystallinity: post DVS sample

Row | Structure (SMILES) | IC50 [1] [µM] | further results
1 | Cc1cc(C)c(CN2CCCc3sc([C@H](C)C4CCN(CC(C)(C)C)CC4)c(C)c3C2=O)c(=O)[nH]1 [Example 1, (R)-5-((4,6-Dimethyl-2-oxo-1,2-dihydropyridin-3-yl)methyl)-3-methyl-2-(1-(1-neopentylpiperidin-4-yl)ethyl)-5,6,7,8-tetrahydro-4H-thieno[3,2-c]azepin-4-one] | ≤ 0.01 | 
2 | Cc1cc(C)c(CN2CCCc3sc([C@H](C)C4CCN(CC5CCC5)CC4)c(C)c3C2=O)c(=O)[nH]1 [Example 2, (R)-2-(1-(1-(Cyclobutylmethyl)piperidin-4-yl)ethyl)-5-((4,6-dimethyl-2-oxo-1,2-dihydropyridin-3-yl)methyl)-3-methyl-5,6,7,8-tetrahydro-4H-thieno[3,2-c]azepin-4-one] | ≤ 0.01 | 
3 | Cc1cc(C)c(CN2CCCc3sc([C@H](C)C4CCN(CC(C)C)CC4)c(C)c3C2=O)c(=O)[nH]1 [Example 3, (R)-5-((4,6-Dimethyl-2-oxo-1,2-dihydropyridin-3-yl)methyl)-2-(1-(1-isobutylpiperidin-4-yl)ethyl)-3-methyl-5,6,7,8-tetrahydro-4H-thieno[3,2-c]azepin-4-one] | ≤ 0.01 | 
4 | Cc1cc(C)c(CN2CCCc3sc([C@H](C)C4CCN(CC5CCCC5)CC4)c(C)c3C2=O)c(=O)[nH]1 [Example 4, (R)-2-(1-(1-(Cyclopentylmethyl)piperidin-4-yl)ethyl)-5-((4,6-dimethyl-2-oxo-1,2-dihydropyridin-3-yl)methyl)-3-methyl-5,6,7,8-tetrahydro-4H-thieno[3,2-c]azepin-4-one] | ≤ 0.01 | 
5 | CCC(C)(C)CN1CCC([C@@H](C)c2sc3c(c2C)C(=O)N(Cc2c(C)cc(C)[nH]c2=O)CCC3)CC1 [Example 5, (R)-5-((4,6-Dimethyl-2-oxo-1,2-dihydropyridin-3-yl)methyl)-2-(1-(1-(2,2-dimethylbutyl)piperidin-4-yl)ethyl)-3-methyl-5,6,7,8-tetrahydro-4H-thieno[3,2-c]azepin-4-one] | ≤ 0.01 | 
6 | Cc1cc(C)c(CN2CCCc3sc([C@H](C)C4CCN(CC(C)(C)F)CC4)c(C)c3C2=O)c(=O)[nH]1 [Example 6, (R)-5-((4,6-Dimethyl-2-oxo-1,2-dihydropyridin-3-yl)methyl)-2-(1-(1-(2-fluoro-2-methylpropyl)piperidin-4-yl)ethyl)-3-methyl-5,6,7,8-tetrahydro-4H-thieno[3,2-c]azepin-4-one] | ≤ 0.01 | 
7 | Cc1cc(C)c(CN2CCCc3sc([C@H](C)C4CCN(CC5CC5)CC4)c(C)c3C2=O)c(=O)[nH]1 [Example 7, (R)-2-(1-(1-(Cyclopropylmethyl)piperidin-4-yl)ethyl)-5-((4,6-dimethyl-2-oxo-1,2-dihydropyridin-3-yl)methyl)-3-methyl-5,6,7,8-tetrahydro-4H-thieno[3,2-c]azepin-4-one] | ≤ 0.01 | 
8 | Cc1cc(C)c(CN2CCCc3sc([C@H](C)C4CCN(CC5(C)CCCC5)CC4)c(C)c3C2=O)c(=O)[nH]1 [Example 8, (R)-5-((4,6-Dimethyl-2-oxo-1,2-dihydropyridin-3-yl)methyl)-3-methyl-2-(1-(1-((1-methylcyclopentyl)methyl)piperidin-4-yl)ethyl)-5,6,7,8-tetrahydro-4H-thieno[3,2-c]azepin-4-one] | ≤ 0.01 | 
9 | Cc1cc(C)c(CN2CCCc3sc([C@H](C)C4CCN(CC56CCC(CC5)CC6)CC4)c(C)c3C2=O)c(=O)[nH]1 [Example 9, (R)-2-(1-(1-(Bicyclo[2.2.2]octan-1-ylmethyl)piperidin-4-yl)ethyl)-5-((4,6-dimethyl-2-oxo-1,2-dihydropyridin-3-yl)methyl)-3-methyl-5,6,7,8-tetrahydro-4H-thieno[3,2-c]azepin-4-one] | ≤ 0.01 | 
10 | Cc1cc(C)c(CN2CCCc3sc([C@H](C)C4CCN(CC5(C)CCC5)CC4)c(C)c3C2=O)c(=O)[nH]1 [Example 10, (R)-5-((4,6-Dimethyl-2-oxo-1,2-dihydropyridin-3-yl)methyl)-3-methyl-2-(1-(1-((1-methylcyclobutyl)methyl)piperidin-4-yl)ethyl)-5,6,7,8-tetrahydro-4H-thieno[3,2-c]azepin-4-one] | ≤ 0.01 | 
11 | Cc1cc(C)c(CN2CCCc3sc([C@H](C)C4CCN(CC5(C)CC5)CC4)c(C)c3C2=O)c(=O)[nH]1 [Example 11, (R)-5-((4,6-Dimethyl-2-oxo-1,2-dihydropyridin-3-yl)methyl)-3-methyl-2-(1-(1-((1-methylcyclopropyl)methyl)piperidin-4-yl)ethyl)-5,6,7,8-tetrahydro-4H-thieno[3,2-c]azepin-4-one] | ≤ 0.01 | 
12 | Cc1cc(C)c(CN2CCCc3sc([C@H](C)C4CCN(CC5(C)CCC5)CC4)c(C)c3C2=O)c(=O)[nH]1.Cl [hydrochloric acid salt of (R)-5-((4,6-dimethyl-2-oxo-1,2-dihydropyridin-3-yl)methyl)-3-methyl-2-(1-(1-((1-methylcyclobutyl)methyl)piperidin-4-yl)ethyl)-5,6,7,8-tetrahydro-4H-thieno[3,2-c]azepin-4-one] |  | hygroscopicity ([2]; DVS isotherm 5-95% RH): low level of hygroscopicity; DVS moisture uptake ([2]; between 5-75% RH): ~0.5%; DVS total uptake of water ([2]; from 5-95% RH): 0.6%; XRPD after DVS experiment: form change or change in crystallinity [2]: did not show a change in crystal form or crystallinity
13 | Cc1cc(C)c(CN2CCCc3sc([C@H](C)C4CCN(CC(C)(C)C)CC4)c(C)c3C2=O)c(=O)[nH]1.Cl [hydrochloric acid salt of (R)-5-((4,6-dimethyl-2-oxo-1,2-dihydropyridin-3-yl)methyl)-3-methyl-2-(1-(1-neopentylpiperidin-4-yl)ethyl)-5,6,7,8-tetrahydro-4H-thieno[3,2-c]azepin-4-one] |  | DVS total moisture uptake ([2]; first cycle from 40-75% RH): 0.5%; XRPD after DVS experiment: form change or change in crystallinity [2]: did not indicate a form change or change in crystallinity; DVS decrease ([2]; second cycle, between 80-90% RH): 0.4%; DVS sorption ([2]; second cycle, from 5-80% RH): 1.0%
